{"source": "patent EP0525063B1", "about": "“Use of specific fatty acids in the manufacture of a medicament for their Iontophoresis delivery” (priority 1990, dated 1991)", "remark": "listed apart in the source", "key": {"[1]": {"experimental": "(§1) Either pig skin or human cadaver skin was used. It was placed in the cell dermal side down.\n(§2) The receptor solution completely filled the receptor compartment.\n(§3) All skin was stored frozen.\n(§4) Each experiment consisted of three phases totaling 66 hours. […]\n(§5) The injection volume was 10 »l."}, "[2]": {"assay": "Iontophoretic drug delivery through skin in vertical flow-through diffusion cell, HPLC of receptor solution (human skin)", "type": "in vitro ADME", "details": "oxymorphone, 0 mg/ml oleic acid (control)", "experimental": "as §1, §2, §3, §4, §5\nTests with enhancer may be compared to the control delivery rate with no oleic acid and using human skin. Tests summarized in Table 4 were done using oxymorphone in the donor compartment."}, "[3]": {"details": "delivery of HM-HCl 0.1M, enhancer 100 mg/ml (10.0%), E/W 60/40, current 1 mA"}}, "note": "“And” between values parts separate entries of the source, which are not always exact repeats. Equal values may be shown once. Where a name gives a salt, the structure may show the parent alone. Read-outs that look alike come from different tables or passages of the source.", "data": [{"smiles": "CCCCCCCCCC(=O)O", "note": "[Capric acid, decanoic acid]", "values": [{"measurement": "Enhancement Factor", "setting": "[1]; [3]", "result": 3.9}]}, {"smiles": "CCCCCCCC(=O)O", "note": "[Caprylic acid, octanoic acid]", "values": [{"measurement": "Enhancement Factor", "setting": "[1]; delivery of HM-HCl 0.1M, enhancer 100 mg/ml (10.0%), E/W 48/52, current 1 mA", "result": 3.6}]}, {"smiles": "CCCCCCCCCCCC(=O)O", "note": "[Lauric acid, dodecanoic acid]", "values": [{"measurement": "Steady State Delivery Rate ± sd", "setting": "[1]", "result": "4838 ± 766", "unit": "µg/h"}, {"measurement": "Enhancement Factor", "setting": "[1]; [3]", "result": 4.0}]}, {"smiles": "CCCCCCCC/C=C\\CCCCCCCC(=O)O", "note": "[Oleic acid, cis-9-octadecenoic acid]", "values": [{"measurement": "Enhancement Factor", "setting": "[1]; oleic acid 50 mg/ml (5%), solvent PG/E/W (30/45/20)", "result": 4.3}, {"measurement": "Enhancement Factor", "setting": "[1]; oleic acid 50 mg/ml (5%), solvent PG/E/W (65/20/10)", "result": 2.5}, {"measurement": "steady state (phase II) delivery rate", "setting": "Scheme B: 1% oleic acid + drug in passive phase I, phase II 0.1 M HM.HCl in DI W without enhancer, current on, pig skin", "result": "2163 ± 354 »g/hr"}, {"measurement": "delivery by the end of phase I", "setting": "Scheme B: passive phase I (18 h, current off), 1% oleic acid + 0.1 M HM.HCl in E/W 67/33, pig skin", "result": "approximately 1800 »g/hr"}, {"measurement": "Enhancement Factor", "setting": "delivery of HM-HCl 0.1M, enhancer 10 mg/ml (1.0%), E/W 67/33, current 1 mA", "result": 4.3}, {"measurement": "Enhancement Factor", "setting": "delivery of Oxy-HCl 0.1M, enhancer 5 mg/ml (0.5%), E/W 67/33, current 1 mA, ratio of steady state rates with and without enhancer", "result": 4.7}, {"measurement": "Enhancement Factor", "setting": "delivery of oxymorphone-HCl, oleic acid 0.25 mg/ml (0.025%), E/W 48/52, 1 mA, pig skin", "result": 0}, {"measurement": "Enhancement Factor", "setting": "delivery of oxymorphone-HCl, oleic acid 0.50 mg/ml (0.050%), E/W 48/52, 1 mA, pig skin", "result": 1.3}, {"measurement": "Enhancement Factor", "setting": "delivery of oxymorphone-HCl, oleic acid 1.0 mg/ml (0.10%), E/W 52/48, 1 mA, pig skin", "result": 1.9}, {"measurement": "Enhancement Factor", "setting": "delivery of oxymorphone-HCl, oleic acid 2.0 mg/ml (0.20%), E/W 56/44, 1 mA, pig skin", "result": 3.2}, {"measurement": "Enhancement Factor", "setting": "delivery of oxymorphone-HCl, oleic acid 2.5 mg/ml (0.25%), E/W 56/44, 1 mA, pig skin, two identical tests on different days", "result": "4.2 and 4.5"}, {"measurement": "Enhancement Factor", "setting": "delivery of oxymorphone-HCl, oleic acid 5.0 mg/ml (0.50%), E/W 67/33, 1 mA, pig skin", "result": 4.7}]}, {"smiles": "CN1CC[C@]23c4c5ccc(O)c4O[C@H]2C(=O)CC[C@@]3(O)[C@H]1C5", "note": "[Oxy-HCl, oxymorphone hydrochloride]", "values": [{"measurement": "Steady State Delivery Rate ± sd", "setting": "[1]; Oxy-HCl 0.1M, no enhancer, E/W 67/33, current 1 mA", "result": "1202 ± 133", "unit": "µg/h"}, {"measurement": "typical iontophoretic steady state delivery rate", "setting": "[1]; current of 1 mA, without the addition of a fatty acid, human skin or pig skin", "result": "about 1200 »g/hr"}, {"measurement": "Steady State Delivery Rate ± sd", "setting": "[2]; current 0 mA", "result": "27 ± 25", "unit": "µg/h"}, {"measurement": "Steady State Delivery Rate ± sd", "setting": "[2]; current 0.25 mA", "result": "228 ± 55", "unit": "µg/h"}, {"measurement": "Steady State Delivery Rate ± sd", "setting": "[2]; current 0.50 mA", "result": "542 ± 62", "unit": "µg/h"}, {"measurement": "Steady State Delivery Rate ± sd", "setting": "[2]; current 0.75 mA", "result": "910 ± 117", "unit": "µg/h"}, {"measurement": "Steady State Delivery Rate ± sd", "setting": "[2]; current 1.0 mA", "result": "1024 ± 276", "unit": "µg/h"}]}]}
